Assay results as given in patent US7674429B2, “Electrostatic disinfectant delivery” (JohnsonDiversey, Inc., priority 2001, dated 2010).

Tests used:
[1] = Viscosity measurement (Brookfield DV-III rheometer); type: physicochemical
Experimental: (§1) Various disinfectant compositions were measured to determine associated viscosity, conductivity and/or delivery rate parameters. Viscosity measurements were conducted with a Brookfield DV-III rheometer using procedures well known to those skilled in the art. Conductivity measurements were taken using a conductivity meter (Accumet Basic AV30) instrument using a two cell conductivity probe (epoxy body with a cell constant of 1.0). Delivery rates were determined with a preferred electrostatic delivery apparatus, available through In-Vironmental Integrity, Inc. of Minneapolis, Minn. under the “Aromasys” trademark using standard procedures and protocols.

[2] = Conductivity measurement (Accumet Basic AV30, two cell probe); type: physicochemical
Experimental: as §1

viscosity [1]: 51.5 cps
conductivity [2]: 0.354 uS/cm
Compound: OCCOCCOCCO [triethylene glycol]
